Assay results reported in patent US10206937B2, “Boronic acid derivatives and therapeutic uses thereof” (Qpex Biopharma, Inc., priority 2014, dated 2019).

Tested on: strains of Enterobacteriaceae producing various carbapenemases (class A, D and B; 104 strains)
Experiment: Antibiotics potentiation by Compound 27 (MIC; meropenem, doripenem, ertapenem, cefepime)
Type: cell-based
Details: + 27 = with Compound 27 at fixed 4 μg/ml

In the case of `C[C@@H](O)[C@H]1C(=O)N2C(C(=O)O)=C(S[C@@H]3CN[C@H](CNS(N)(=O)=O)C3)[C@H](C)[C@H]12` [D], the MIC (strain KP1081 Klebsiella pneumoniae (NDM-1, TEM-1, SHV-11, CMY-6, CTX-M-15)) is reported as “Z (MIC of greater than 10 μg/mL)”, the MIC (strain KP1082 Klebsiella pneumoniae (KPC-2, SHV-1)) is reported as “Y (MIC of 1 μg/mL to 10 μg/mL)” and the MIC (strain KP1083 Klebsiella pneumoniae (KPC-3, SHV-1, TEM-1)) is reported as “Y (MIC of 1 μg/mL to 10 μg/mL)”. For the same compound, the MIC (strain KP1084 Klebsiella pneumoniae (KPC-3, SHV-11, TEM-1)) was “Z (MIC of greater than 10 μg/mL)”, the MIC (strain KP1086 Klebsiella pneumoniae (OXA-48, CTX-M-15, TEM, SHV)) was “Z (MIC of greater than 10 μg/mL)” and the MIC (strain KP1087 Klebsiella pneumoniae (KPC-2, CTX-M-15, SHV-11, TEM-1)) was “Z (MIC of greater than 10 μg/mL)”. The MIC (strain KP1088 Klebsiella pneumoniae (KPC-3, SHV-11, TEM-1)) was “Y (MIC of 1 μg/mL to 10 μg/mL)”, the MIC (strain KP1089 Klebsiella pneumonias (OXA-181, CTX-M-15, TEM, SHV)) was “Y (MIC of 1 μg/mL to 10 μg/mL)” and the MIC (strain KP1095 Klebsiella pneumoniae (KPC-2 TEM-1 SHV-1)) was “Y (MIC of 1 μg/mL to 10 μg/mL)”. The MIC (strain KP1096 Klebsiella pneumoniae (KPC-2 TEM-181 SHV-11)) was “Y (MIC of 1 μg/mL to 10 μg/mL)”, the MIC (strain KP1097 Klebsiella pneumonias (IMP-1)) was “Z (MIC of greater than 10 μg/mL)” and the MIC (strain KP1098 Klebsiella pneumoniae (IMP-26)) was “Z (MIC of greater than 10 μg/mL)”. For the same compound, the MIC (strain KP1104 Klebsiella pneumoniae (KPC TEM)) was “Z (MIC of greater than 10 μg/mL)”, the MIC (strain KP1105 Klebsiella pneumoniae (KPC TEM SHV)) was “Y (MIC of 1 μg/mL to 10 μg/mL)” and the MIC (strain KP1159 Klebsiella pneumoniae (SHV-1(2b); CTX-M-15; IMP-4)) was “Z (MIC of greater than 10 μg/mL)”. For the same compound, the MIC (strain KP1160 Klebsiella pneumoniae (SHV-28(2be); CTX-M-15; IMP-26)) was “Z (MIC of greater than 10 μg/mL)”, the MIC (strain KP1161 Klebsiella pneumoniae (NDM-1)) was “Z (MIC of greater than 10 μg/mL)” and the MIC (strain KP1164 Klebsiella pneumoniae (SHV-12(2be); VIM-1)) was “Z (MIC of greater than 10 μg/mL)”. The MIC (strain KP1165 Klebsiella pneumoniae (SHV-11(2b); CTX-M-15; VIM-27)) was “Z (MIC of greater than 10 μg/mL)”, the MIC (strain KP1166 Klebsiella pneumoniae (SHV-5(2be); VIM-26)) was “Z (MIC of greater than 10 μg/mL)” and the MIC (strain KP1167 Klebsiella pneumoniae (SHV-12(2be); VIM-1)) was “X (MIC of less than 1 μg/mL)”. The MIC (strain KP1169 Klebsiella pneumoniae (SHV-11(2b); VIM-1)) was “Z (MIC of greater than 10 μg/mL)”, the MIC (strain KP1170 Klebsiella pneumoniae (SHV-11(2b); CTX-M-15; NDM-1)) was “Z (MIC of greater than 10 μg/mL)” and the MIC (strain KP1172 Klebsiella pneumoniae (SHV-31(2be); DHA-1; VIM-1)) was “Z (MIC of greater than 10 μg/mL)”. The MIC (strain KP1173 Klebsiella pneumoniae (TEM-33(2br); CTX-M-15; IMP-1)) was “Y (MIC of 1 μg/mL to 10 μg/mL)”, the MIC (strain KP1174 Klebsiella pneumoniae (CTX-M-14; IMP-1)) was “Z (MIC of greater than 10 μg/mL)” and the MIC (strain KP1175 Klebsiella pneumoniae (SHV-OSBL(2b); VIM-1)) was “Z (MIC of greater than 10 μg/mL)”. The MIC (strain KP1177 Klebsiella pneumoniae (SHV-OSBL(2b), TEM-OSBL(2b); CTX-M-15; NDM-1)) was “Z (MIC of greater than 10 μg/mL)”, the MIC (strain KP1178 Klebsiella pneumoniae (SHV-OSBL(2b;) TEM-OSBL(2b); CTX-M-15; NDM-1)) was “Z (MIC of greater than 10 μg/mL)” and the MIC (strain KP1179 Klebsiella pneumoniae (SHV-12(2be), TEM-OSBL(2b); CTX-M-15; NDM-7)) was “Z (MIC of greater than 10 μg/mL)”. For the same compound, the MIC (strain KP1180 Klebsiella pneumoniae (SHV-OSBL(2b), TEM-OSBL(2b); CTX-M-15; DHA-1; IMP-26)) was “Y (MIC of 1 μg/mL to 10 μg/mL)”, the MIC (strain KP1181 Klebsiella pneumoniae (SHV-OSBL(2b); CTX-M-15; IMP-26)) was “Y (MIC of 1 μg/mL to 10 μg/mL)” and the MIC (strain KP1183 Klebsiella pneumoniae (SHV-OSBL(2b), TEM-OSBL(2b); CTX-M-15; NDM-1)) was “Z (MIC of greater than 10 μg/mL)”. For the same compound, the MIC (strain KP1184 Klebsiella pneumoniae (SHV-OSBL(2b); IMP-1)) was “Y (MIC of 1 μg/mL to 10 μg/mL)”, the MIC (strain KP1185 Klebsiella pneumoniae (SHV-OSBL(2b), TEM-OSBL(2b); IMP-4)) was “Z (MIC of greater than 10 μg/mL)” and the MIC (strain KP1186 Klebsiella pneumoniae (CTX-M-15; NDM-1)) was “Z (MIC of greater than 10 μg/mL)”. The MIC (strain KP1187 Klebsiella pneumoniae (SHV-55(2be), TEM-OSBL(2b); CTX-M-15; NDM-1)) was “Z (MIC of greater than 10 μg/mL)”, the MIC (strain KP1188 Klebsiella pneumoniae (SHV-OSBL(2b); CTX-M-15; NDM-1)) was “Z (MIC of greater than 10 μg/mL)” and the MIC (strain KP1189 Klebsiella pneumoniae (TEM-OSBL(2b); CTX-M-15; CTX-M-27; NDM-1)) was “Z (MIC of greater than 10 μg/mL)”. The MIC (strain KPM1123 Klebsiella pneumoniae (KPC-2 TEM SHV)) was “Y (MIC of 1 μg/mL to 10 μg/mL)”, the MIC (strain KPM1202 Klebsiella pneumoniae (KPC SHV TEM)) was “Y (MIC of 1 μg/mL to 10 μg/mL)” and the MIC (strain KPM1203 Klebsiella pneumoniae (KPC SHV TEM)) was “Y (MIC of 1 μg/mL to 10 μg/mL)”. For the same compound, the MIC (strain KPM1344 Klebsiella pneumoniae (VIM-1)) was “Y (MIC of 1 μg/mL to 10 μg/mL)”, the MIC (strain KPM1345 Klebsiella pneumoniae (VIM-1 SHV)) was “Z (MIC of greater than 10 μg/mL)” and the MIC (strain KPM1347 Klebsiella pneumoniae (NDM-1 SHV CTX-M-15)) was “Z (MIC of greater than 10 μg/mL)”. The MIC (strain KX1017 Klebsiella oxytoca (KPC-2, OXA-2, SHV-30)) was “Y (MIC of 1 μg/mL to 10 μg/mL)”, the MIC (strain KX1018 Klebsiella oxytoca (KPC-2, SHV-40, OXY-1)) was “Y (MIC of 1 μg/mL to 10 μg/mL)” and the MIC (strain KX1019 Klebsiella oxytoca (KPC-2, OXA-2)) was “Y (MIC of 1 μg/mL to 10 μg/mL)”. The MIC (strain PM1024 Proteus mirabilis (TEM-1(2b); CMY-16; VIM-1)) was “Z (MIC of greater than 10 μg/mL)”, the MIC (strain PM1026 Proteus mirabilis (DHA-1; IMP-26)) was “Z (MIC of greater than 10 μg/mL)” and the MIC (strain PM1027 Proteus mirabilis (VIM-5)) was “Y (MIC of 1 μg/mL to 10 μg/mL)”. The MIC (strain SM1023 Serratia marcescens (VIM-4)) was “Z (MIC of greater than 10 μg/mL)”.
